Data from ChEMBL document CHEMBL4613257, “Advanced Glycation End Product Inhibition by Alkaloids from Ocotea paranapiacabensis for the Prevention of Skin Aging” (2020).

What was measured:
Format in all cases: functional
[1] = Anti-glycation activity assessed as inhibition of AGE formation at 150 uM incubated for 3 days in presence of BSA and MGO by fluorescence based assay relative to control; set-up: scale not given: the % may be the effect or the level left
Zone of skin [2] = test: Anti-aging activity in reconstructed human skin assessed as dermis contraction at 10 mM by hematoxylin and eosin staining-based microscopic analysis (reference value: 57.4%)
[3] = Anti-glycation activity assessed as inhibition of AGE formation at 10 mM incubated for 3 days in presence of BSA and MGO by fluorescence based assay relative to control; set-up: scale not given: the % may be the effect or the level left
Zone of skin [4] = test: Anti-aging activity in reconstructed human skin assessed as dermis contraction at 150 uM by hematoxylin and eosin staining-based microscopic analysis (reference value: 57.4%)

With `COc1cc2c(cc1O)C(Cc1ccc(O)cc1)[N+](C)(C)CC2` (stereo not drawn) the Activity [1] was 26.1%.

`N=C(N)NN` [PIMAGEDINE] showed an Activity (Zone of skin [2]) of 49.7% and an Activity [3] of 92.2%.

For `C[N+]1(C)CCc2cc(O)c(O)cc2C1Cc1ccc(O)cc1` (stereo not drawn), the Activity [1] was 61.5 to 63% and the Activity (Zone of skin [4]) was 8.7%.

With `CN1CCc2cc(O)c(O)cc2C1Cc1ccc(O)cc1` (stereo not drawn) the Activity [1] was 98.2% and the Activity (Zone of skin [4]) was 4.2%.

For `C[N+]1(C)C=Cc2cc(O)c(O)cc2C1Cc1ccc(O)cc1` (stereo not drawn), the Activity [1] was 83.3%.
